ChEMBL document CHEMBL1201862, “PubChem BioAssay data set” (2004)
Activity calls are given as the source filed them.

Columns and labels:
[1] = Luminescent dose response cell-based high throughput screening assay for inhibitors of the Janus kinase 2 mutant JAK2V617F. [Related pubchem assays: 1446 (Primary screen.), 1521 (Confirmation assay.), 1486 (Counter screen.)]; assay type: functional
[2] = NIH-3T3 fibroblast cytotoxicity, dose response, cytotoxicity control, cell-based, fluorescence, Alamar Blue, secondary assay (AID 2327); assay type: functional;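 note: NIH-3T3 mouse fibroblasts cultured with fluconazole at 8 µg/mL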
[3] = C. albicans growth with fluconazole, confirmation, fluorescence, retest (AID 2467); assay type: functional, cell-based
[4] = test system: Vero; assay: cells; assay type: functional; conditions: Chlorocebus sabaeus
[5] = M. tuberculosis H37Rv growth inhibitors, H37Rv strain (AID 1626); assay type: functional
[6] = biological target: T1, Hexokinase HKDC1 (Homo sapiens, UniProt Q2TB90); assay: HKDC1 hexokinase inhibitors, dose response, biochemical, W721R variant (AID 504729); assay type: functional
T1 sequence (Q2TB90 whole entry): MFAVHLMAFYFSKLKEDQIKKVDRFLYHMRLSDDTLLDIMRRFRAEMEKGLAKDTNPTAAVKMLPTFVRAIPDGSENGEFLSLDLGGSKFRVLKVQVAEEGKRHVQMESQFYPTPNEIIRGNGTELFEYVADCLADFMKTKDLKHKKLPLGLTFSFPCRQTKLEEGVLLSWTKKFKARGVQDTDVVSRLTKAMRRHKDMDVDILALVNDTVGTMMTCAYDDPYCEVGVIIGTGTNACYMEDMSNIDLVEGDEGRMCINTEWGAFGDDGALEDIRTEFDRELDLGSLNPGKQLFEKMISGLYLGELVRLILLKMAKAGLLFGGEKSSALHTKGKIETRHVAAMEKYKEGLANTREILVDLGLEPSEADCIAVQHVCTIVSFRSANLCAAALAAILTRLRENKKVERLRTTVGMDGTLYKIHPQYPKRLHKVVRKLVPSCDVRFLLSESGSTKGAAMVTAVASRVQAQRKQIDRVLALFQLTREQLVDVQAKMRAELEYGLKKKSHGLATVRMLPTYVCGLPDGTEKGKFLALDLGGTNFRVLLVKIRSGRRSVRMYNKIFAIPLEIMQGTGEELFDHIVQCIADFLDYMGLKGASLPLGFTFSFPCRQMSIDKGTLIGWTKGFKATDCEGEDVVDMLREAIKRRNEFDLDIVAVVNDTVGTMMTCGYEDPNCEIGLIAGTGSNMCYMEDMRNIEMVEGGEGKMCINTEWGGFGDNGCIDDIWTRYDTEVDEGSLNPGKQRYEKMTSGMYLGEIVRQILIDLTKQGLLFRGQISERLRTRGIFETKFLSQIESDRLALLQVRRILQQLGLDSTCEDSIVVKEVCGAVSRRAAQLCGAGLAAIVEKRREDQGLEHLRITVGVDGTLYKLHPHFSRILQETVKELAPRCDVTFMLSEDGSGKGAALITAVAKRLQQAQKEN

[7] = biological target: DNA dC->dU-editing enzyme APOBEC-3A (Homo sapiens, UniProt P31941); assay: APOBEC3A DNA deaminase inhibitors, dose response, biochemical (AID 504722); assay type: functional
DNA dC->dU-editing enzyme APOBEC-3A, sequence (P31941 whole entry): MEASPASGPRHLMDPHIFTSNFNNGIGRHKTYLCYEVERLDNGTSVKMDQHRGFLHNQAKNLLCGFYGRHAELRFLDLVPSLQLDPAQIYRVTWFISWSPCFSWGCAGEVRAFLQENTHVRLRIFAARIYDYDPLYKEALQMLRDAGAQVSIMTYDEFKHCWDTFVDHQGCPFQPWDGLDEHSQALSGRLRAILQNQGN

[8] = biological target: DNA dC->dU-editing enzyme APOBEC-3G (Homo sapiens, UniProt Q9HC16); assay: Dose Response confirmation of small molecule APOBEC3G DNA Deaminase Inhibitors via a fluorescence-based single-stranded DNA deaminase assay. [Related pubchem assays (depositor defined):AID493012, AID493028]; assay type: functional
DNA dC->dU-editing enzyme APOBEC-3G, sequence (Q9HC16 whole entry): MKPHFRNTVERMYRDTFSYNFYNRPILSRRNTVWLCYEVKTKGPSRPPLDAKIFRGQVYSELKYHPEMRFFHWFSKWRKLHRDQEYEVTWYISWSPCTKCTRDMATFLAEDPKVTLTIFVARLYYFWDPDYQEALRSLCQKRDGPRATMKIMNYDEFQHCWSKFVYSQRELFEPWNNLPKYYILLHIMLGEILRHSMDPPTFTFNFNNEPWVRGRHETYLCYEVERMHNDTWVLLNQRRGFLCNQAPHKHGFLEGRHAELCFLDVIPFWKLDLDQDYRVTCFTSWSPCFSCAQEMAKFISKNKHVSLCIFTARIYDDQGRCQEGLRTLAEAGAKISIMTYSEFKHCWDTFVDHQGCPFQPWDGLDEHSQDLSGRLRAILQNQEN

[9] = cytotoxicity in HPDE-C7 cells, cell-based, fluorescence, HTS (AID 430); assay type: functional; conditions: Homo sapiens
[10] = cytotoxicity in KRAS-transformed pancreatic duct cells, primary screen, cell-based, fluorescence, HTS (AID 431); assay type: functional; conditions: Homo sapiens;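 note: cell line used: HPDE-C7K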
[11] = biological target: T2, Estrogen receptor (Homo sapiens, UniProt P03372);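 note: potency for inhibiting coactivator peptide recruitment to the receptor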
T2 sequence (P03372 whole entry): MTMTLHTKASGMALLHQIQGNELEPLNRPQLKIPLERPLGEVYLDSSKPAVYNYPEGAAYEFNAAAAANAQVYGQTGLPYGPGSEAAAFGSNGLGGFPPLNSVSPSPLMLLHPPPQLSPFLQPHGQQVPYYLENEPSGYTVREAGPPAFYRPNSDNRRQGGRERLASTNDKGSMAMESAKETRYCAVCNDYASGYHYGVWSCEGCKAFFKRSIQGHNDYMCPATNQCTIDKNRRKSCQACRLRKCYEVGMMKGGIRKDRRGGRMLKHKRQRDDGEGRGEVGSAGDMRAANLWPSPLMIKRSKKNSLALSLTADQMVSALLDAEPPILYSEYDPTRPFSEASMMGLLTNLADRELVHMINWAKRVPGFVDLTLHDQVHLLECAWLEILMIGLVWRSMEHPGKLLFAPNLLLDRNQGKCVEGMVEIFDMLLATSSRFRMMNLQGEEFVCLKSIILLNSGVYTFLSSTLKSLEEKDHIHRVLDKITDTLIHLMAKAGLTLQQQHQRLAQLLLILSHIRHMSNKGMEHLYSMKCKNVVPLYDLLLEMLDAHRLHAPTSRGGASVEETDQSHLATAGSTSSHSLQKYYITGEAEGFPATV

[12] = biological target: Induced myeloid leukemia cell differentiation protein Mcl-1 (Homo sapiens, UniProt Q07820); assay type: functional
Induced myeloid leukemia cell differentiation protein Mcl-1, sequence (Q07820 whole entry): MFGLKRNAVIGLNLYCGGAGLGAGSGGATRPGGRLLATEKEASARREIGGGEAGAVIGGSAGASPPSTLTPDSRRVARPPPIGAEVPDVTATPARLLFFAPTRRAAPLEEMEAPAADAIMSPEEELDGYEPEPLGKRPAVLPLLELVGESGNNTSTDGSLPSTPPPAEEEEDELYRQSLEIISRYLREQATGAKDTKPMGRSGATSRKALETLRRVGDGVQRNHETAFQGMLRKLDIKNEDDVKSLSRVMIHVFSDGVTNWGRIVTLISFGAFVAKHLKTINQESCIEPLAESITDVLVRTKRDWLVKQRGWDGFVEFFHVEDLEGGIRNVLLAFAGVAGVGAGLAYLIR

[13] = biological target: Beta-galactosidase (Escherichia coli, UniProt Q8VNN2); assay: beta-galactosidase enzyme inhibitors and activators, dose response, artefact control for CCR6 antagonist project, biochemical, E. coli enzyme, set 3 (AID 504712); assay type: functional
Beta-galactosidase, sequence (Q8VNN2 whole entry): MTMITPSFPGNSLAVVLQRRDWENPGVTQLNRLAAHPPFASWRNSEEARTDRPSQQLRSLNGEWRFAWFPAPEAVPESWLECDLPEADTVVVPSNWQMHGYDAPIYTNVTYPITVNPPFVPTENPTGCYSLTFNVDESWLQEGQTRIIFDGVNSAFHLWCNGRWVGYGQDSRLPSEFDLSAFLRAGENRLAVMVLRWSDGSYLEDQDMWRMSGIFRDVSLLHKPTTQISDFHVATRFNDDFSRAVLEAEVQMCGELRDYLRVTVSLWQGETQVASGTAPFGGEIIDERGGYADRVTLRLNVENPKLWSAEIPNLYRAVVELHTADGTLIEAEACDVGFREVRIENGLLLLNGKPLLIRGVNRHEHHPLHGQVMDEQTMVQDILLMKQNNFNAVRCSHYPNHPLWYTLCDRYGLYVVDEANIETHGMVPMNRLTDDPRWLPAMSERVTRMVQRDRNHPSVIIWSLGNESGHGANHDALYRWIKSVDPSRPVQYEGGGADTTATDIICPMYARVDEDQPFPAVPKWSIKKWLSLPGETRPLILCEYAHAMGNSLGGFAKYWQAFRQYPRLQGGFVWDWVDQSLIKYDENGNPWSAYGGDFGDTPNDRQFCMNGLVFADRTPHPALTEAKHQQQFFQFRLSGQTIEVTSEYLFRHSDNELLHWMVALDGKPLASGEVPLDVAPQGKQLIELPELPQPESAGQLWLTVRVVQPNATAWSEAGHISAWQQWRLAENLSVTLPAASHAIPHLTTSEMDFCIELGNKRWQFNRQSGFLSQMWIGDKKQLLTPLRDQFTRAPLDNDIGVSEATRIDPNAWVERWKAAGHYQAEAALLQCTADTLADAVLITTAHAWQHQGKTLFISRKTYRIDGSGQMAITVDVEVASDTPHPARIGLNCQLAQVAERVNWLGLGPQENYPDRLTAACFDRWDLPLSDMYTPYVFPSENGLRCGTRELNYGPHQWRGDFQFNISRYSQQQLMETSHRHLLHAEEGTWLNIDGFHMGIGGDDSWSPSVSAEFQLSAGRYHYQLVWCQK

[14] = test system: Vero; assay: Vero cell cytotoxicity, cytotoxicity control for flavivirus capping enzyme inhibitors (AID 588742); assay type: functional; conditions: Chlorocebus sabaeus
[15] = biological target: Genome polyprotein (dengue virus type 2, UniProt P29990); assay: Dengue-2 NS5 methyltransferase inhibitors, primary screen, biochemical, confirmation dose response (AID 588689); assay type: functional
Genome polyprotein, sequence (P29990 2492-3391 limits assumed): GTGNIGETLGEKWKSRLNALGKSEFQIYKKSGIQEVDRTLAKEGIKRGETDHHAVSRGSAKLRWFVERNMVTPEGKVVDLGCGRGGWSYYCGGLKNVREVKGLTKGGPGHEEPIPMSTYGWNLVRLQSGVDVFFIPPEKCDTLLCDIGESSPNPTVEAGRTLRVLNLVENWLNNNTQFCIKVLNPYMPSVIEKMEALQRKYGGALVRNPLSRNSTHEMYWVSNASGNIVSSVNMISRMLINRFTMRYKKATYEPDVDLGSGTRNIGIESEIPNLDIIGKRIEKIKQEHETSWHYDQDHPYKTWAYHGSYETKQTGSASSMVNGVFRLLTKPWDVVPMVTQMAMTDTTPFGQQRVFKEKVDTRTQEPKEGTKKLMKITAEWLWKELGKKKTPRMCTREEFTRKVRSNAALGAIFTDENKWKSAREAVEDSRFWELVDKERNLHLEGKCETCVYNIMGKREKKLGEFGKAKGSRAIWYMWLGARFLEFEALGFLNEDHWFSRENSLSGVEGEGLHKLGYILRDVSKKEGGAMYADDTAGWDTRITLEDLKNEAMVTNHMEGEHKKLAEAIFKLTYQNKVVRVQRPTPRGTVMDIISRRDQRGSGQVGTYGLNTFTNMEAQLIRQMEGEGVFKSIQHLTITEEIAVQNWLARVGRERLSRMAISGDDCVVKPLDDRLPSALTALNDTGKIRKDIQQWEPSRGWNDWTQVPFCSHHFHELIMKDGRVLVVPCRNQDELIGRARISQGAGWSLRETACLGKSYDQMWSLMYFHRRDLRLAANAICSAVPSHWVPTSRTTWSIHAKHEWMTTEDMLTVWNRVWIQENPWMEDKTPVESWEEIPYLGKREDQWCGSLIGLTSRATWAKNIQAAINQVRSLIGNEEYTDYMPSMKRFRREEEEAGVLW

[16] = biological target: T3, Polyadenylate-binding protein 1 (Homo sapiens, UniProt P11940); assay: PABP1 MLLE–PAM2 interaction inhibitors, dose response, miRNA deadenylation inhibitor project, biochemical, fluorescence polarization, Cy5-PAM2 peptide, secondary (AID 602260); assay type: functional; conditions: read-out: IC50_Mean
T3 sequence (P11940 whole entry): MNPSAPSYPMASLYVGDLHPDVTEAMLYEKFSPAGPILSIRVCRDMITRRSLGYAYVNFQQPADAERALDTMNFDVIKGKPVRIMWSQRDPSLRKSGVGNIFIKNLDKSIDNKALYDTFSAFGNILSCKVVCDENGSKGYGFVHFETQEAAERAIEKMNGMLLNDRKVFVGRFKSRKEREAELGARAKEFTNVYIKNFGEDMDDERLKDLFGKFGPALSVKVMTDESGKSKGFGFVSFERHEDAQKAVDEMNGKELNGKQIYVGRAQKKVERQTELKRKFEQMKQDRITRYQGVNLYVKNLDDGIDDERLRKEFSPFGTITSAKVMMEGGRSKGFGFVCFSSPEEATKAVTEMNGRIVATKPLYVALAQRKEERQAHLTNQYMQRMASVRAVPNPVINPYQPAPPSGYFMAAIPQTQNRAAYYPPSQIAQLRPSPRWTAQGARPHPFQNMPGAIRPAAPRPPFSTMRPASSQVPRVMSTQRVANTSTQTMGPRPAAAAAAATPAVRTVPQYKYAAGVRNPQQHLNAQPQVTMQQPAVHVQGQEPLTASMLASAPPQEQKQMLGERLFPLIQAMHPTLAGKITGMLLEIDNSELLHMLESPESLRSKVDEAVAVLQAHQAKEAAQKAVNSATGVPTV

[17] = biological target: T3, Polyadenylate-binding protein 1; assay: PABP1 MLLE–PAM2 binding inhibitor potency, dose response, biochemical, fluorescence polarization, FITC-PAM2 peptide (AID 602259); assay type: functional; conditions: read-out: IC50_Mean
[18] = biological target: T4, Heat shock factor protein 1 (Mus musculus, UniProt P38532); assay: HSF1 potentiators in luciferase reporter cells, confirmation, cell-based, NIH3T3, luminescence, dose retest (AID 435004); assay type: functional;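 note: stress induced by proteasome inhibitor MG132 added 30 min after compound; luciferase reporter driven by HSF1 response element in NIH3T3 cells; actives raise luminescence as potentiators of the MG132 stress response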
T4 sequence (P38532 whole entry): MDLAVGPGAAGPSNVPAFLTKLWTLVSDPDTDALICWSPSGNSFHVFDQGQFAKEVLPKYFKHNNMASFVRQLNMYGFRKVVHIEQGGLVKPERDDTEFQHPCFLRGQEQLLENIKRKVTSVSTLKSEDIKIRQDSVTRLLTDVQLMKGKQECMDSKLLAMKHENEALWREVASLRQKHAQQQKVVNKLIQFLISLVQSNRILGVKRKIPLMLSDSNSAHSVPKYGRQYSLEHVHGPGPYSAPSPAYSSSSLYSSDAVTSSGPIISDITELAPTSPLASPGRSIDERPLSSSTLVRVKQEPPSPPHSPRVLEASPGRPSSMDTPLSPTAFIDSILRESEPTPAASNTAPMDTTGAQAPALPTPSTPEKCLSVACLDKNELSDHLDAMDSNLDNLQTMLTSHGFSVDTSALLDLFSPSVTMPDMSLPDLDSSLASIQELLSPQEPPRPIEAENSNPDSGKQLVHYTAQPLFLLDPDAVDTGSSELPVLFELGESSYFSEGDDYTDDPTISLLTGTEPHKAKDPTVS

[19] = biological target: T5, Replicative DNA helicase DnaB (Mycobacterium tuberculosis, UniProt P9WMR3); assay: DnaB intein splicing inhibitors, dose response, biochemical, cell-free fluorescence (AID 449749); assay type: functional
T5 sequence (P9WMR3 whole entry): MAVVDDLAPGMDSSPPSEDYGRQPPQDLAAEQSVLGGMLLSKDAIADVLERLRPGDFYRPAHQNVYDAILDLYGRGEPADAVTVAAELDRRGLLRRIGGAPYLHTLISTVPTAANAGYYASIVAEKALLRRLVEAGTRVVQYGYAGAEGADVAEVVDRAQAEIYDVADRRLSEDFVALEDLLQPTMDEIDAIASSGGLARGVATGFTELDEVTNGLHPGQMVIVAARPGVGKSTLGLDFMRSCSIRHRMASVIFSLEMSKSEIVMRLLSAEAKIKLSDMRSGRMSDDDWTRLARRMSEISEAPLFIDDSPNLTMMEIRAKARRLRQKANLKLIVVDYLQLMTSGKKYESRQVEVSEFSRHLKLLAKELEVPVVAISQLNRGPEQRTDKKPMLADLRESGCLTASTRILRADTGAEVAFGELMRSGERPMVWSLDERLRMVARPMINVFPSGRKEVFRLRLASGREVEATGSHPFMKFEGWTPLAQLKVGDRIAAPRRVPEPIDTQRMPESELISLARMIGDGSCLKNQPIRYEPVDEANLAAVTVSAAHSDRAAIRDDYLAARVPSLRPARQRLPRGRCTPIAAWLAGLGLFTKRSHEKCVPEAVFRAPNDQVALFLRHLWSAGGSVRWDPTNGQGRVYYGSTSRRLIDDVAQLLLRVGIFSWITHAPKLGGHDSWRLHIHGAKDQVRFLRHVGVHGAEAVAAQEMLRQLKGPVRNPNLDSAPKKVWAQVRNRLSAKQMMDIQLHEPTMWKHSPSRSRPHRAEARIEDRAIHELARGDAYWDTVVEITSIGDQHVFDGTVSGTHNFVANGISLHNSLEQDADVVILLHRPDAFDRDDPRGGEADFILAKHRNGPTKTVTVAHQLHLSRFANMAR

[20] = biological target: T6, Protein RecA (Mycobacterium tuberculosis, UniProt P9WHJ3); assay: Fluorescence Cell-Free Homogeneous Dose Retest to Identify Inhibitors of RecA-Intein Splicing Activity. [Related pubchem assays (depositor defined):AID2097, AID2223, AID489010, AID492950]; assay type: functional
T6 sequence (P9WHJ3 whole entry): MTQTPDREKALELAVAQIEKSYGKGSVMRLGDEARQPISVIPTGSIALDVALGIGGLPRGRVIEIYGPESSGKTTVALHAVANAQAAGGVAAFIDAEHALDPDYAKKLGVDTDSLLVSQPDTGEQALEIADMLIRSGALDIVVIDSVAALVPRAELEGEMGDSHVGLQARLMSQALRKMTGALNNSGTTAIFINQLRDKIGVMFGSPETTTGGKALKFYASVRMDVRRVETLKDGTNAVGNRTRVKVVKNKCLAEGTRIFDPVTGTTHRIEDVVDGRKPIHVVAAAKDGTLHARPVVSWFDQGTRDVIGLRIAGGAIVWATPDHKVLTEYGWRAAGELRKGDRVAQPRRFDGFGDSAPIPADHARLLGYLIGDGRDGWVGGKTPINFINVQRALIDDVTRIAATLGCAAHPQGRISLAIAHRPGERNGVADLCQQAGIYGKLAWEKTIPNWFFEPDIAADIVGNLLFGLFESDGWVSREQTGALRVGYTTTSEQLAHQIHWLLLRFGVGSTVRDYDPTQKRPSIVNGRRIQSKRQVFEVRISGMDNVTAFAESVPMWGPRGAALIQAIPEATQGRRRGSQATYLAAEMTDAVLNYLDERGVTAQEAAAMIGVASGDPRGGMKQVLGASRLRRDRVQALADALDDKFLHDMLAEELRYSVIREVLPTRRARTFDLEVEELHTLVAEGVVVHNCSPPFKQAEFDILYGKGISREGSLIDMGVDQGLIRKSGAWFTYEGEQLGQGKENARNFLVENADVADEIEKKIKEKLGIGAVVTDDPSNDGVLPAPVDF

[21] = biological target: Prothrombin (Homo sapiens, UniProt P00734); assay: Thrombin 1536 HTS Dose Response Confirmation. [Related pubchem assays: 1046 (Thrombin 1536 HTS; hits were confirmed in this assay)]; assay type: functional

## COc1ccccc1C(C[N+](=O)[O-])c1c(N)n(C)c(=O)n(C)c1=O (stereo unspecified)
[1]
  IC50: 1.61 µM (active)
[2]
  EC50: 9.19 µM (active)
[3]
  EC50: 6.01 µM (active)
[4]
  CC50: 9.01 µM (active)

## Cc1ccccc1N1C(=O)NC(=O)/C(=C/Nc2ccc3c(c2)OCO3)C1=O
[5]
  IC50: > 100 µM (active)

## Oc1ccc(O)c(Cc2nc3ccccc3[nH]2)c1
[6]
  IC50: 3.45 µM (active)

## CCc1ccc(-n2c(=O)c3ccccc3n3c(S)nnc23)cc1.CN(C)C=O
[7]
  IC50: > 100 µM (inactive)
[8]
  IC50: 4.9 µM (active)

## Cc1ccc(S(=O)(=O)c2cc3c(=O)n4ccccc4nc3n(Cc3ccco3)c2=N)cc1C
[9]
  EC50: 18.8 µM (active)
[10]
  EC50: 17.9 µM (active)

## CC12CNCC(C)(CNC1)C2O (stereo unspecified)
[9]
  EC50: > 20 µM (not active)
[10]
  EC50: > 20 µM (not active)

## Cc1ccc(S(=O)(=O)N2CCN(C(=O)CSc3ncc(C(F)(F)F)cc3Cl)CC2)cc1
[11]
  IC50: > 50 µM (not active)

## N#Cc1cc2c([nH]c1=S)CCCC2
[7]
  IC50: > 100 µM (inactive)
[8]
  IC50: 5.16 µM (active)

## CCOC(=O)/C=C(\C)Sc1cc(O)c2ccccc2c1O
[12]
  IC50: 10.5 µM (active)
[13]
  IC50: > 66.6 µM (inactive)
[6]
  IC50: 11.8 µM (active)
[14]
  CC50: 22 µM (active)
[15]
  IC50: 5.24 µM (active)
[16]
  IC50: > 66 µM (inactive)
[17]
  IC50: > 66 µM (inactive)

## Cc1ccc(C(=O)/C=C\Nc2ccc(C)c(C)c2)cc1
[5]
  IC50: > 100 µM (active)

## COC1(OC)C(/C=C/c2ccc(Cl)cc2)C(C#N)(C#N)C1(OC)OC (stereo unspecified)
[1]
  IC50: 1.76 µM (active)
[18]
  EC50: 33.6 µM (active)
[19]
  AC50: 33.8 µM (active)
[20]
  EC50: 2.45 µM (active)

## O=C(Oc1oc(-c2ccco2)nc1/C=N/c1ccccc1)c1ccco1
[9]
  EC50: > 20 µM (not active)
[10]
  EC50: > 20 µM (not active)
[21]
  IC50: 1.32 µM (active)

## CCc1sc(N)nc1-c1ccccc1
[5]
  IC50: > 100 µM (active)
